Source: patent publication US20250092014A1, “COMPOUNDS AND METHODS OF ACTIVATING LIPOPROTEIN LIPASE” (Metrea Biosciences, Inc., priority 2021, published 2025)

What was measured:
C57BL/6 mice = experiment: Oral fat tolerance test (postprandial triglyceridaemia after olive oil bolus); assay type: in vivo; details: overnight-fasted C57BL/6 mice, compound IP 1 h before 10 mL/kg olive oil, bled at 1, 2 and 3.5 h
Procedure: To examine to effects of test compounds on postprandial triglycerdemia, 5-7 week old C57BL/6 mice were fasted overnight (18 hours) on non-nutritive bedding (Alpha-Dri). Following the overnight fast, the mice are bled via retro-orbital sinus (25 μL) using microcapillaries (t-1 hr sample). The LPL activator test compound was then administered intraperitoneally (IP) in a dose volume of 10 ml/kg. One hour later the mice were bled for the t=0 timepoint. The mice were then immediately dosed with a 10 mL/kg oral bolus of olive oil. The mice were subsequently bled at 1-, 2-, and 3.5-hours post-olive oil administration.
Whole blood samples were collected into tubes containing 0.125% EDTA solution in saline. Diluted plasma samples were analyzed for triglyceride levels using Infinity Triglyceride reagent (Thermo) on a microtiter plate. Briefly, 10 μL of diluted sample was added the plate. 200 μL of the reagent was added and the plate was incubated for 10 minutes at 37° C. The plate was then read at 550 nm on a Molecular Devices M5 Spectrophotometer (San Jose, CA). The concentration of triglycerides in the sample was determined using a standard curve made using a dilution of triglyceride standard (Sigma-Aldrich, St. Louis, MO) using the Softmax software from Molecular Devices. All graphing and subsequent area under-the-curve and statistical analysis (Student's t Test) is performed using GraphPad Prism (version 8.0, GraphPad Software, Inc., San Diego, CA).

[1] = molecular target: T1, LPL (native bovine milk protein) inactivated by ANGPTL4 (Bos taurus, UniProt P11151); experiment: LPL ANGPTL4 protection assay (LPL fluorescence assay, resorufin butyrate substrate); assay type: biochemical; details: LPL activation activity, LPL 2.5 nM, ANGPTL4 20 nM
T1 construct: from tissue; host or cells: bovine milk (LPL); E. coli (GST-ANGPTL4)
T1 sequence (P11151 29-478): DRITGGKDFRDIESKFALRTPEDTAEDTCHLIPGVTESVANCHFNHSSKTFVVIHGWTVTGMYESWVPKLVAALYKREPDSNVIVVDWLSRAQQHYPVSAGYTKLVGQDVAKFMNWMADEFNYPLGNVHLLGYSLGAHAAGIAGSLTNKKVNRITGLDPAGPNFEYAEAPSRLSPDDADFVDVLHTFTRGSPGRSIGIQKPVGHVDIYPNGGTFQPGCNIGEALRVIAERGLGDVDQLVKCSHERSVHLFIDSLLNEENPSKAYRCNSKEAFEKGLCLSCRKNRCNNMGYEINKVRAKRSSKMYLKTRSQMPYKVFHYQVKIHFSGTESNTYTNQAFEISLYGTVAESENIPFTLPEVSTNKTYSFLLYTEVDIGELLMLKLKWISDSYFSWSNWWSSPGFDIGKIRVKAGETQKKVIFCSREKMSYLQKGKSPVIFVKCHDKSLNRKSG

In the case of `O=C(O)Cc1cc(F)ccc1NC(=O)c1ccc(N2CCCCC2)c(NC(=O)c2nn(CC(F)(F)F)c3ccccc23)c1` [Compound 158, 2-(5-fluoro-2-(4-(piperidin-1-yl)-3-(1-(2,2,2-trifluoroethyl)-1H-indazole-3-carboxamido)benzamido)phenyl)acetic acid], the “hypertriglyceridemia response to oral olive oil gavage (plasma triglycerides)” value (C57BL/6 mice) is reported as “blunts hypertriglyceridemia response in a dose-dependent fashion” and the EC50 [1] is reported as 1.01 µM.
